One data set has as its system Sprague Dawley (SD) rats. Description: ASSAY (I) efficacy testing on appetite (food intake) using an ad libitum fed rat model. The class given is in vivo. Conditions: rat, 30 nmol/kg. In outline: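 Individual food consumption was logged each hour up to 7 h and again at 24 h, occasionally 48 h, with Grubbs-test outliers removed. Each 200–250 g Sprague Dawley rat, free-feeding in its home cage under reversed lighting, received a single ip, po or sc dose of 0.01–3 mg/kg at lights-off, alongside a vehicle group.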

A short description of data set [1]: ASSAY (IV) determination of solubility. The class given is physicochemical. The procedure, abridged:
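Samples of polypeptide, prepared from a water stock at […] and diluted 1:1 into 100 mM buffers spanning pH 3.0 to 8.0, stood 18 hours at room temperature. Polypeptide concentration was then determined by UPLC following centrifugation.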

Data set [2] has as its target T1, human amylin receptor (membranes from Amylin 3(a)/CRE-luc cells) (Homo sapiens, UniProt O60896+P30988).
T1 construct: expressed in transfected cells
T1 sequence (P30988 25-474): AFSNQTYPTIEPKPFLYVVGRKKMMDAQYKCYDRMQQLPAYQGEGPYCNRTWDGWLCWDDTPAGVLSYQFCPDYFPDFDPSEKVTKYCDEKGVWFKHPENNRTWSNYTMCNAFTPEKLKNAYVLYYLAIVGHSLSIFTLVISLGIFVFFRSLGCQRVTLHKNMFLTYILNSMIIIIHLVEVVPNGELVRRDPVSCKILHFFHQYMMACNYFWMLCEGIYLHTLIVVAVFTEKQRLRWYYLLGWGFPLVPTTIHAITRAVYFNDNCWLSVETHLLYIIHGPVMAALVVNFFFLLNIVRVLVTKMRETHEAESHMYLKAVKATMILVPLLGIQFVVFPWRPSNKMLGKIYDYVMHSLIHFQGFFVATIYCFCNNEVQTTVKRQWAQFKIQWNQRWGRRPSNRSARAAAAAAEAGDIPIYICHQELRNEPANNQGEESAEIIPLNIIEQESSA
T1 sequence (O60896 24-148 partner): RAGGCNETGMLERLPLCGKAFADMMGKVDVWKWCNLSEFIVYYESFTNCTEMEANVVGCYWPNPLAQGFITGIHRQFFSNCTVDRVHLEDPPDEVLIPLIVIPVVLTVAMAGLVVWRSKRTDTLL
As to the kind of experiment: ASSAY (V) binding to the human amylin receptor (SPA, 125I-rat amylin).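 Also: competition binding of cell membranes (35 ng/µL) mixed with SPA beads in 384-well plates at 40 µL total volume, read by scintillation counting.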

For a further data set, the target named is T2, rat calcitonin receptor (Rattus norvegicus, UniProt P32214).
T2 construct: expressed in transfected cells; host or cells: BHK tk'ts 13 (transient, FuGENE 6), membranes
T2 sequence (P32214 25-479 isoform P32214-2 limits assumed): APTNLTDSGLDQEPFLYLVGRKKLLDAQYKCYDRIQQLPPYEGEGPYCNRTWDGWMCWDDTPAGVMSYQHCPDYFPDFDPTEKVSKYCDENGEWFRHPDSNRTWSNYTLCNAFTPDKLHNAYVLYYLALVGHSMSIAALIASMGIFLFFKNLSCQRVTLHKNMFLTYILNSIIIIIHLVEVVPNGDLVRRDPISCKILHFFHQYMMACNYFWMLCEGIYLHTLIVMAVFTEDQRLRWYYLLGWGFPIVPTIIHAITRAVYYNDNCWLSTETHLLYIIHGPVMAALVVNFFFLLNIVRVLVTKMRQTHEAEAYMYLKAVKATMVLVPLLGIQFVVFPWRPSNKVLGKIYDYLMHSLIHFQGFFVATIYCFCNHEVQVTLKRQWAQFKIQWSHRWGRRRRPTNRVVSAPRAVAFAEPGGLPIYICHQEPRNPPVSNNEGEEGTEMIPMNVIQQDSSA
Description: ASSAY (VIII) binding to the rat calcitonin receptor. As to conditions: Table 7, read-out: rCTR bind IC50. The procedure, abridged:
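Cell membranes for binding came from BHK tk′ts 13 cells harvested approximately 48 hours after transient transfection with the rat receptor.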

[3] abbreviates: bistrispropane buffer, pH 6.5, read-out: Solubility pH 6.5 Concentration.
The mark [4] stands for this setting: bistrispropane buffer, pH 7.5, read-out: Solubility pH 7.5 Concentration.
[5] abbreviates: bistrispropane buffer, pH 6.0, read-out: Solubility pH 6.0 Concentration.
Setting [6] is: bistrispropane buffer, pH 7.0, read-out: Solubility pH 7.0 Concentration.
Setting [7] is: bistrispropane buffer, pH 8.0, read-out: Solubility pH 8.0 Concentration.
Where [8] appears, read: glycylglycine buffer, pH 3.0, read-out: Solubility pH 3.0 Concentration.
The mark [9] stands for this setting: glycylglycine buffer, pH 4.0, read-out: Solubility pH 4.0 Concentration.
Where [10] appears, read: glycylglycine buffer, pH 5.0, read-out: Solubility pH 5.0 Concentration.
Where [11] appears, read: Table 5, selectivity, hCTR bind IC50 / hAmylin-R bind IC50.
[12] abbreviates: Table 5a, selectivity, hCTR bind IC50 / hAmylin-R bind IC50.
[13] abbreviates: Table 5b, selectivity, hCTR bind IC50 / hAmylin-R bind IC50.
[14] abbreviates: Table 5c, selectivity, hCTR bind IC50 / hAmylin-R bind IC50.
[15] abbreviates: Table 7, human binding selectivity, included for comparison.
The mark [16] stands for this setting: Table 7a (preferred compounds), human binding selectivity, included for comparison.
[17] abbreviates: ratio of human calcitonin receptor binding IC50 to human amylin receptor binding IC50.

These results are taken from patent publication US9023789B2, “Amylin analogs and pharmaceutical compositions thereof” (Novo Nordisk A/S, priority 2012, dated 2015).

pIC50: −log10 of the molar value. Converted amounts (≈) assume the structure as drawn. Read-outs that look alike come from different tables or passages of the source. Numbered stars: 1 amine (or outer) side, 2 acyl side, 3 side chain; on linkers, the order of the positions; unused ones are H or OH. Bridge positions count the residues as written; N and C are the ends. Side chains are listed from the residue outwards. Peptide text beside a SMILES is read from it. * marks the point of attachment. C20 diacid = O=C(O)CCCCCCCCCCCCCCCCCCC(=O)*; γGlu = O=C(O)[C@H](CCC(=O)[*:2])N[*:1]; AEEA = NCCOCCOCC(=O)O

For `CC[C@H](C)[C@H](NC(=O)[C@H](C)NC(=O)CNC(=O)[C@H](Cc1ccccc1)NC(=O)[C@H](CC(N)=O)NC(=O)[C@@H]1CCCN1C(=O)[C@H](CO)NC(=O)[C@H](CO)NC(=O)[C@H](Cc1c[nH]cn1)NC(=O)[C@H](CCCNC(=N)N)NC(=O)[C@H](CC(C)C)NC(=O)[C@H](Cc1ccccc1)NC(=O)[C@H](Cc1c[nH]cn1)NC(=O)[C@H](C)NC(=O)[C@H](CC(C)C)NC(=O)[C@H](CCCNC(=N)N)NC(=O)[C@H](CCC(N)=O)NC(=O)[C@@H](NC(=O)[C@H](C)NC(=O)[C@@H]1CSSC[C@H](NC(=O)[C@@H](N)CCCCNC(=O)COCCOCCNC(=O)CC[C@H](NC(=O)CCCCCCCCCCCCCCCCCCC(=O)O)C(=O)O)C(=O)N[C@@H](CC(N)=O)C(=O)N[C@@H]([C@@H](C)O)C(=O)N[C@@H](C)C(=O)N[C@@H]([C@@H](C)O)C(=O)N1)[C@@H](C)O)C(=O)N1CCC[C@H]1C(=O)N[C@@H](CO)C(=O)N[C@@H](CO)C(=O)N[C@H](C(=O)N1CCC[C@H]1C(=O)N[C@H](C(=O)NCC(=O)N[C@@H](CO)C(=O)N[C@@H](CC(N)=O)C(=O)N[C@H](C(=O)N[C@@H](Cc1ccc(O)cc1)C(N)=O)[C@@H](C)O)C(C)C)[C@@H](C)O` [Example 61] (H-K([AEEA-γGlu-C20 diacid])CNTATCATQRLAHFLRHSSPNFGAIPSSTPVGSNTY-NH2; disulfide 2-7 (inferred)), in the data set with Sprague Dawley (SD) rats, the “Food intake reduction 0-24 h 30 nmol/kg (%)” value is recorded as 53%. In addition, the “Food intake reduction 24-48 h 30 nmol/kg (%)” value in the data set with Sprague Dawley (SD) rats is 18%. Further, the solubility at 18 h is ≥ 200 µM in data set [1] (setting [3]); ≥ 200 µM in data set [1] (setting [4]); ≥ 200 µM in data set [1] (setting [5]); ≥ 200 µM in data set [1] (setting [6]); 153 µM (≈ 693 µg/mL) in data set [1] (setting [7]); ≥ 200 µM in data set [1] (setting [8]). The solubility at 18 h in data set [1] (setting [9]) and in data set [1] (setting [10]) was ≥ 200 µM throughout. Further, the “Ratio hCT/hAmylin binding” value in data set [2] (setting [11]), in data set [2] (setting [12]), in data set [2] (setting [13]), in data set [2] (setting [14]), in data set [2] (setting [15]) and in data set [2] (setting [16]) was 66.7 throughout. In addition, the “Ratio hCT/hAmylin binding” value in data set [2] (setting [17]) was determined as 66.7. For the same compound, the pIC50 on rat calcitonin receptor was 7.48.
In the case of `CC[C@H](C)[C@H](NC(=O)[C@H](C)NC(=O)CNC(=O)[C@H](Cc1ccccc1)NC(=O)[C@H](CC(N)=O)NC(=O)[C@@H]1CCCN1C(=O)[C@H](CO)NC(=O)[C@H](CO)NC(=O)[C@H](Cc1c[nH]cn1)NC(=O)[C@H](CCCNC(=N)N)NC(=O)[C@H](CC(C)C)NC(=O)[C@H](Cc1ccccc1)NC(=O)[C@H](Cc1c[nH]cn1)NC(=O)[C@H](C)NC(=O)[C@H](CC(C)C)NC(=O)[C@H](CCCNC(=N)N)NC(=O)[C@H](CCC(N)=O)NC(=O)[C@@H](NC(=O)[C@H](C)NC(=O)[C@@H]1CSSC[C@H](NC(=O)[C@@H](N)CCCCNC(=O)COCCOCCNC(=O)CC[C@H](NC(=O)CCCCCCCCCCCCCCCCCCC(=O)O)C(=O)O)C(=O)N[C@@H](CC(N)=O)C(=O)N[C@@H]([C@@H](C)O)C(=O)N[C@@H](C)C(=O)N[C@@H]([C@@H](C)O)C(=O)N1)[C@@H](C)O)C(=O)N1CCC[C@H]1C(=O)N[C@@H](CO)C(=O)N[C@@H](CO)C(=O)N[C@H](C(=O)N[C@@H](CC(N)=O)C(=O)N[C@H](C(=O)NCC(=O)N1CCC[C@H]1C(=O)N[C@@H](CC(N)=O)C(=O)N[C@H](C(=O)N[C@@H](Cc1ccc(O)cc1)C(N)=O)[C@@H](C)O)C(C)C)[C@@H](C)O` [Example 68] (H-K([AEEA-γGlu-C20 diacid])CNTATCATQRLAHFLRHSSPNFGAIPSSTNVGPNTY-NH2; disulfide 2-7), in the data set on Sprague Dawley (SD) rats, the “Food intake reduction 0-24 h 30 nmol/kg (%)” value worked out at 33%. Further, in the data set with Sprague Dawley (SD) rats, the “Food intake reduction 24-48 h 30 nmol/kg (%)” value was 0%. For the same compound, the solubility at 18 h in data set [1] (setting [3]) is ≥ 200 µM; in data set [1] (setting [4]), 193 µM (≈ 880 µg/mL); in data set [1] (setting [5]) it was ≥ 200 µM; in data set [1] (setting [6]) it was ≥ 200 µM; in data set [1] (setting [7]), 138 µM (≈ 631 µg/mL); in data set [1] (setting [8]), ≥ 200 µM. In addition, the solubility at 18 h in data set [1] (setting [9]) and in data set [1] (setting [10]) was ≥ 200 µM in each case. The “Ratio hCT/hAmylin binding” value in data set [2] (setting [11]), in data set [2] (setting [12]), in data set [2] (setting [13]), in data set [2] (setting [14]), in data set [2] (setting [15]) and in data set [2] (setting [16]) was 64.4 throughout. For the same compound, in data set [2] (setting [17]), the “Ratio hCT/hAmylin binding” value is recorded as 64.4. Moreover, the pIC50 at rat calcitonin receptor is 7.55.
With `CC[C@H](C)[C@H](NC(=O)[C@H](C)NC(=O)CNC(=O)[C@H](Cc1ccccc1)NC(=O)[C@H](CC(N)=O)NC(=O)[C@@H]1CCCN1C(=O)[C@H](CO)NC(=O)[C@H](CO)NC(=O)[C@H](Cc1c[nH]cn1)NC(=O)[C@H](CCCNC(=N)N)NC(=O)[C@H](CC(C)C)NC(=O)[C@H](Cc1ccccc1)NC(=O)[C@H](CC(N)=O)NC(=O)[C@H](C)NC(=O)[C@H](CC(C)C)NC(=O)[C@H](CCCNC(=N)N)NC(=O)[C@H](CCC(N)=O)NC(=O)[C@@H](NC(=O)[C@H](C)NC(=O)[C@@H]1CSSC[C@H](NC(=O)[C@H](CCCCN)NC(=O)CC[C@H](NC(=O)CCCCCCCCCCCCCCCCCCC(=O)O)C(=O)O)C(=O)N[C@@H](CC(N)=O)C(=O)N[C@@H]([C@@H](C)O)C(=O)N[C@@H](C)C(=O)N[C@@H]([C@@H](C)O)C(=O)N1)[C@@H](C)O)C(=O)N1CCC[C@H]1C(=O)N[C@@H](CO)C(=O)N[C@@H](CO)C(=O)N[C@H](C(=O)N[C@@H](CC(N)=O)C(=O)N[C@H](C(=O)NCC(=O)N[C@@H](CCCNC(=N)N)C(=O)N[C@@H](CC(N)=O)C(=O)N[C@H](C(=O)N[C@@H](Cc1ccc(O)cc1)C(N)=O)[C@@H](C)O)C(C)C)[C@@H](C)O` [Example 39] ({C20 diacid-γGlu}-KCNTATCATQRLANFLRHSSPNFGAIPSSTNVGRNTY-NH2; disulfide 2-7), the “Food intake reduction 0-24 h 30 nmol/kg (%)” value in the data set on Sprague Dawley (SD) rats turned out to be 36%. In addition, the “Food intake reduction 24-48 h 30 nmol/kg (%)” value in the data set on Sprague Dawley (SD) rats is given as 8%. Besides, the solubility at 18 h in data set [1] (setting [3]), in data set [1] (setting [4]), in data set [1] (setting [5]), in data set [1] (setting [6]), in data set [1] (setting [7]) and in data set [1] (setting [8]) was ≥ 200 µM each time. Moreover, the solubility at 18 h in data set [1] (setting [9]) and in data set [1] (setting [10]) was ≥ 200 µM in each case. Further, the pIC50 in data set [2] (Table 4, read-out: hAmylin-R bind IC50) was 9.18; on rat calcitonin receptor, 7.02. Further, the “Ratio hCT/hAmylin binding” value in data set [2] (setting [11]), in data set [2] (setting [12]), in data set [2] (setting [13]), in data set [2] (setting [14]), in data set [2] (setting [15]) and in data set [2] (setting [16]) was 29.0 throughout. Also, in data set [2] (setting [17]), the “Ratio hCT/hAmylin binding” value was 29.0.

A word on the pIC50: it is the negative decadic logarithm of the IC50, by convention in mol/L.
